# Patent publication US10851412B2, “Cell potency assay for therapeutic potential” (FATE THERAPEUTICS, INC., priority 2013, dated 2020)
# System: Human umbilical cord blood
# Experiment: Cell potency assay: real-time PCR signature gene expression score of treated cord blood
# Type: cell-based
# Experimental: Human umbilical cord blood was treated ex vivo with 16,16, dimethyl prostaglandin E2 (dmPGE2) prior to transplantation. Real-time PCR transcript quantitation of gene expression from the treated cord blood cells was used to determine the therapeutic potential of the cells. RNA was extracted from an aliquot (100 uL) of the treated cord blood cells using the PicoPure RNA Isolation kit (Life Technologies) using the manufacturer's recommended protocol. Total RNA was quantified using the Nanodrop 2000 Spectrophotometer (Thermo Scientific). Complimentary DNA (cDNA) was reverse transcribed from 50 ng of total RNA using the High-Capacity cDNA Reverse Transcription Kit (Life Technologies).
# Quantitative PCR was performed in triplicate for each gene in the amplified cDNA using StepOne Plus (Applied Biosystems) and Taqman gene expression assays (Life Technologies) and 40 cycles of real-time PCR. Results of the real-time PCR were analyzed using the StepOne Software v2.1 analysis package (Applied Biosystems). Expression values of the transcripts were normalized to the Taqman gene expression average for the housekeeping genes, GAPDH and HPRT1, to determine the relative expression levels (ΔCt values). […]
structure (smiles),measurement,setting,value
"CCCCC(C)(C)[C@H](O)/C=C/[C@H]1[C@H](O)CC(=O)[C@@H]1C/C=C\CCCC(=O)O [dmPGE2, 16,16, dimethyl prostaglandin E2]",gene expression in the group of signature genes (real-time PCR),human umbilical cord blood after a two hour treatment,Increased gene expression
same,gene expression score (standardized Euclidean distance model vs training set),"human umbilical cord blood treated ex vivo, about two hours at 37° C. with 10 μM dmPGE2, test samples n=10, mean +/- SD, positive scores cluster with samples having therapeutic potential",16.8+/−2.2
